From patent publication US9108944B2, “Androgen receptor modulators and uses thereof” (ARAGON PHARMACEUTICALS, INC., priority 2010, dated 2015)

Target: T1, AR-VP16 (Homo sapiens, UniProt P10275)
T1 sequence (P10275 560-920 limits assumed): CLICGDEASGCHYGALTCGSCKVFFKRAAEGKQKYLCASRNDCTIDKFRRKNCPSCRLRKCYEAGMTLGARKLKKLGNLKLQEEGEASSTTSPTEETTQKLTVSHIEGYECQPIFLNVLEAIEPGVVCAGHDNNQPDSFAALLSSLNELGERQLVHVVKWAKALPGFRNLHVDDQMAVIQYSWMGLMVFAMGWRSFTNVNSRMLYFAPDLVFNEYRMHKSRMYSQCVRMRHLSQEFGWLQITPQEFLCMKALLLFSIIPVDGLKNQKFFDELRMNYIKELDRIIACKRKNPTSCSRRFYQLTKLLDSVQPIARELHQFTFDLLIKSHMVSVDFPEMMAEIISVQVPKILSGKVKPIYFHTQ
Experiment: AR-VP16 DNA Binding Assay, antagonist mode (HepG2 cells, 0.1 nM R1881)
Assay type: cell-based
Experimental: Cells were transiently transfected using Lipofectin (Life Technologies) according to the manufacturer's protocol. […] Transfected cells were incubated overnight then treated with ligand. […] For antagonist assays, the compounds were serially diluted and 50 μL of compound with RPMI supplemented with charcoal stripped serum plus methyltrienolone (R1881) were added to the cells. The final R1881 concentration used in the antagonist assays was 0.1 nM. Following 48 hour incubation the medium was removed and the cells were lysed in 40 μL of lysis buffer (25 mM Tris Phosphate, 2 mM CDTA, 10% Glycerol, 0.5% Triton X-100, 2 mM DTT).

Compound	IC50 [nM]
N#Cc1ncc(N2C(=O)C3(CCC3)N(c3ccc(OCc4ccncc4)c(F)c3)C2=S)cc1C(F)(F)F [Compound 156, 5-(5-(3-Fluoro-4-(pyridin-4-ylmethoxy)phenyl)-8-oxo-6-thioxo-5,7-diazaspiro[3.4]octan-7-yl)-3-(trifluoromethyl)picolinonitrile]	< 1000
CN1CCN(CCCOc2ccc(N3C(=S)N(c4cnc(C#N)c(C(F)(F)F)c4)C(=O)C34CCC4)cc2F)CC1 [Compound 157, 5-(5-(3-Fluoro-4-(3-(4-methylpiperazin-1-yl)propoxy)phenyl)-8-oxo-6-thioxo-5,7-diazaspiro[3.4]octan-7-yl)-3-(trifluoromethyl)picolinonitrile]	< 1000
COCCOc1ccc(N2C(=S)N(c3ccc(C#N)c4ncccc34)C(=O)C23CCC3)cc1F [Compound 171, 5-(5-(3-Fluoro-4-(2-methoxyethoxy)phenyl)-8-oxo-6-thioxo-5,7-diazaspiro[3.4]octan-7-yl)quinoline-8-carbonitrile]	< 1000
N#Cc1ccc(N2C(=O)C3(CCC3)N(c3ccc(OCCc4ccccn4)c(F)c3)C2=S)c2cccnc12 [Compound 172, 5-(5-(3-Fluoro-4-(2-(pyridin-2-yl)ethoxy)phenyl)-8-oxo-6-thioxo-5,7-diazaspiro[3.4]octan-7-yl)quinoline-8-carbonitrile]	< 1000
CN1CCN(CCOc2ccc(N3C(=S)N(c4ccc(C#N)c5ncccc45)C(=O)C34CCC4)cc2F)CC1 [Compound 173, 5-(5-(3-Fluoro-4-(2-(4-methylpiperazin-1-yl)ethoxy)phenyl)-8-oxo-6-thioxo-5,7-diazaspiro[3.4]octan-7-yl)quinoline-8-carbonitrile]	< 1000
N#Cc1ncc(N2C(=O)C3(CCC3)N(c3ccc(OCCN4CCNCC4)c(F)c3)C2=S)cc1C(F)(F)F [Compound 174, 5-(5-(3-fluoro-4-(2-(piperazin-1-yl)ethoxy)phenyl)-8-oxo-6-thioxo-5,7-diazaspiro[3.4]octan-7-yl)-3-(trifluoromethyl)picolinonitrile]	< 1000
N#Cc1ncc(N2C(=O)C3(CCC3)N(c3ccc(OCCc4cnccn4)c(F)c3)C2=S)cc1C(F)(F)F [Compound 176, 5-(5-(3-Fluoro-4-(2-(pyrazin-2-yl)ethoxy)phenyl)-8-oxo-6-thioxo-5,7-diazaspiro[3.4]octan-7-yl)-3-(trifluoromethyl)picolinonitrile]	< 1000
N#Cc1ncc(N2C(=O)C3(CCC3)N(c3ccc(OCCN4CCCCC4)c(F)c3)C2=S)cc1C(F)(F)F [Compound 177, 5-(5-(3-Fluoro-4-(2-(piperidin-1-yl)ethoxy)phenyl)-8-oxo-6-thioxo-5,7-diazaspiro[3.4]octan-7-yl)-3-(trifluoromethyl)picolinonitrile]	< 1000
N#Cc1ncc(N2C(=O)C3(CCC3)N(c3ccc(OCCC4CCCCC4)c(F)c3)C2=S)cc1C(F)(F)F [Compound 179, 5-(5-(4-(2-Cyclohexylethoxy)-3-fluorophenyl)-8-oxo-6-thioxo-5,7-diazaspiro[3.4]octan-7-yl)-3-(trifluoromethyl)picolinonitrile]	< 1000
COCCOc1ccc(N2C(=S)N(c3cnc(C#N)c(C(F)(F)F)c3)C(=O)C23CCC3)c(F)c1 [Compound 181, 5-(5-(2-Fluoro-4-(2-methoxyethoxy)phenyl)-8-oxo-6-thioxo-5,7-diazaspiro[3.4]octan-7-yl)-3-(trifluoromethyl)picolinonitrile]	< 1000
CN1CCN(CCOc2ccc(N3C(=S)N(c4cnc(C#N)c(C(F)(F)F)c4)C(=O)C34CCC4)c(F)c2)CC1 [Compound 182, 5-(5-(2-Fluoro-4-(2-(4-methylpiperazin-1-yl)ethoxy)phenyl)-8-oxo-6-thioxo-5,7-diazaspiro[3.4]octan-7-yl)-3-(trifluoromethyl)picolinonitrile]	< 1000
N#Cc1ncc(N2C(=O)C3(CCC3)N(c3ccc(OCCc4ccccn4)cc3F)C2=S)cc1C(F)(F)F [Compound 183, 5-(5-(2-Fluoro-4-(2-(pyridin-2-yl)ethoxy)phenyl)-8-oxo-6-thioxo-5,7-diazaspiro[3.4]octan-7-yl)-3-(trifluoromethyl)picolinonitrile]	< 1000
N#Cc1ncc(N2C(=O)C3(CCC3)N(c3ccc(OCCCN4CCCC4)c(F)c3)C2=S)cc1C(F)(F)F [Compound 185, 5-(5-(3-Fluoro-4-(3-(pyrrolidin-1-yl)propoxy)phenyl)-8-oxo-6-thioxo-5,7-diazaspiro[3.4]octan-7-yl)-3-(trifluoromethyl)picolinonitrile]	< 1000
CN1CCC(Oc2ccc(N3C(=S)N(c4cnc(C#N)c(C(F)(F)F)c4)C(=O)C34CCC4)cc2F)CC1 [Compound 193, 5-(5-(3-Fluoro-4-((1-methylpiperidin-4-yl)oxy)phenyl)-8-oxo-6-thioxo-5,7-diazaspiro[3.4]octan-7-yl)-3-(trifluoromethyl)picolinonitrile]	< 1000
Cc1cc(N2C(=O)C3(CCC3)N(c3ccc(OC4CCOCC4)cc3)C2=S)cnc1C#N [Compound 194, 3-Methyl-5-(8-oxo-5-(4-((tetrahydro-2H-pyran-4-yl)oxy)phenyl)-6-thioxo-5,7-diazaspiro[3.4]octan-7-yl)picolinonitrile]	< 1000
CN1CCC(Oc2ccc(N3C(=S)N(c4cnc(C#N)c(C(F)(F)F)c4)C(=O)C3(C)C)cc2)CC1 [Compound 196, 5-(4,4-Dimethyl-3-(4-((1-methylpiperidin-4-yl)oxy)phenyl)-5-oxo-2-thioxoimidazolidin-1-yl)-3-(trifluoromethyl)picolinonitrile]	< 1000
Cc1cc(N2C(=O)C3(CCC3)N(c3ccc(OCCN4CCN(CC(F)(F)F)CC4)cc3)C2=S)cnc1C#N [Compound 199, 3-Methyl-5-(8-oxo-6-thioxo-5-(4-(2-(4-(2,2,2-trifluoroethyl)piperazin-1-yl)ethoxy)phenyl)-5,7-diazaspiro[3.4]octan-7-yl)picolinonitrile]	< 1000
CC(=O)N1CCN(CCOc2ccc(N3C(=S)N(c4cnc(C#N)c(C(F)(F)F)c4)C(=O)C34CCC4)cc2F)CC1 [Compound 202, 5-(5-(4-(2-(4-Acetylpiperazin-1-yl)ethoxy)-3-fluorophenyl)-8-oxo-6-thioxo-5,7-diazaspiro[3.4]octan-7-yl)-3-(trifluoromethyl)picolinonitrile]	< 1000
COc1ccc(N2C(=S)N(c3cnc(C#N)c(C(F)(F)F)c3)C(=O)C23CCC3)cc1 [Compound 204, 5-(5-(4-Methoxyphenyl)-8-oxo-6-thioxo-5,7-diazaspiro[3.4]octan-7-yl)-3-(trifluoromethyl)picolinonitrile]	< 1000
N#Cc1ncc(N2C(=O)C3(CCC3)N(c3ccc(Oc4ncccn4)cc3)C2=S)cc1C(F)(F)F [Compound 206, 5-(8-Oxo-5-(4-(pyrimidin-2-yloxy)phenyl)-6-thioxo-5,7-diazaspiro[3.4]octan-7-yl)-3-(trifluoromethyl)picolinonitrile]	< 1000
N#Cc1ncc(N2C(=O)C3(CCC3)N(c3ccc(Oc4ccncn4)cc3)C2=S)cc1C(F)(F)F [Compound 208, 5-(8-Oxo-5-(4-(pyrimidin-4-yloxy)phenyl)-6-thioxo-5,7-diazaspiro[3.4]octan-7-yl)-3-(trifluoromethyl)picolinonitrile]	< 1000
Cc1cc(N2C(=O)C3(CCC3)N(c3ccc(Oc4ccncn4)cc3)C2=S)cnc1C#N [Compound 209, 3-Methyl-5-(8-oxo-5-(4-(pyrimidin-4-yloxy)phenyl)-6-thioxo-5,7-diazaspiro[3.4]octan-7-yl)picolinonitrile]	< 1000
